Consider three compounds from patent US9833466B2, “Treatment of leukemia with histone deacetylase inhibitors” (Acetylon Pharmaceuticals Inc., priority 2014, dated 2017).

In assay [1] the test system is HDAC1, HDAC2, HDAC3 and HDAC6. The assay is described as follows: HDAC selectivity of the inhibitor panel. Type of assay: biochemical. To be noted: HDAC isoform(s) the inhibitor is selective for. Here is the method: Compounds for testing are diluted in DMSO to 50 fold the final concentration and a ten point three fold dilution series is made. The compounds are diluted in assay buffer (50 mM HEPES, pH 7.4, 100 mM Kill, 0.001% Tween-20, 0.05% BASE, 20 μM TEC) to 6 fold their final concentration. The HDAC enzymes (purchased from BPS Biosciences) are diluted to 1.5 fold their final concentration in assay buffer. The dipeptide substrate and trypsin at 0.05 μM final concentration are diluted in assay buffer at 6 fold their final concentration. The final enzyme concentrations to use in these assays are 3.3 ng/ml (HDAC1), 0.2 ng/ml (HDAC2), 0.08 ng/ml (HDAC3) and 2 ng/ml (HDAC6). The final substrate concentrations to use are 16 μM (HDAC1), 10 μM (HDAC2), 17 μM (HDAC3) and 14 μM (HDAC6). Five μ1 of compound and 20 μl of enzyme are added to wells of a black, opaque 384 well plate in duplicate. Enzyme and compound are incubated together at room temperature for 10 min. Five μ1 of substrate is added to each well, the plate is shaken for 60 seconds and placed into a Victor 2 microliter plate reader. The development of fluorescence is monitored for 60 min. and the linear rate of the reaction is calculated. The IC50 is determined using Graph Pad Prism by a four parameter curve fit.
The following HDAC inhibitors were used to evaluate the relationship between HDAC selectivity and the viability of AML cell lines upon exposure to the HDAC inhibitor: […]

Assay [2] deals with HL-60, Kasumi-1 and NB4. Briefly: Surface CD11b by FACS in three AML cell lines. Type of assay: cell-based. To be noted: single agent; 72 hours; all three cell lines. Here is the method: (§1) Briefly, the AML cell lines HL-60 (FIGS. 4A and 4D), Kasumi-1 (FIGS. 4B and 4E) and NB4 (FIGS. 4C and 4F) were treated with the indicated concentrations of compounds. In FIGS. 4A-C, surface levels of myeloid differentiation marker CD11b were determined by FACS at 72 hours post-treatment. […] In FIGS. 4D-F, apoptosis was assessed by flow cytometry by measuring Annexin V binding and cellular permeability to propidium iodide at 96 hours post-treatment. The relative fraction of cells that were alive, in early apoptosis, in late apoptosis, or dead was then determined.
(§2) FIGS. 10A-F show the treatment of the following AML cell lines: Kasumi-1 (FIGS. 10A and 10B), HL-60 (FIGS. 10C and 10D) and NB4 (FIGS. 10E and 10F), with indicated doses of compounds. FIGS. 10A, 10C, and 10E show surface levels of myeloid differentiation marker CD11b determined by FACS at 72 h post-treatment. […] FIGS. 10B, 10D, and 10F show the assessment of apoptosis by FACS (see, e.g., FIG. 9C).
Background: A flow cytometer gives signals particle by particle.

Assay [3] deals with HL-60. Briefly: Surface CD11b by FACS in HL-60. The format is cell-based. To be noted: combination with azacitidine vs single agent, 96 hours. The procedure: as §1
(§3) FIGS. 5A-F show the combination of HDAC inhibitors and azacitidine in the HL-60 cell line. Briefly, cells were treated with DMSO, Compound B, Compound A, or Compound E as a single agent or in combination with azacitidine for 96 hours. Surface levels of CD11b (FIGS. 5A, 5C, 5E) and apoptosis (FIGS. 5B, 5D, 5F) was assessed by flow cytometry, as in FIG. 4.

Assay [4] relates to Kasumi-1. Briefly: Surface CD11b by FACS in Kasumi-1. Type of assay: cell-based. As to conditions: combination with azacitidine vs single agent, 72 hours. Here is the method: as §1
(§4) Briefly, cells were treated with DMSO, Compound B, Compound A, or Compound E as a single agent or in combination with azacitidine at the indicated concentrations. Surface levels of CD11b were determined 72 hours post-treatment (FIGS. 6A, 6C, 6E), and apoptosis was assessed 96 hours post-treatment (FIGS. 6B, 6D, 6F).

Assay [5] deals with MV4-11. The assay is described as follows: Surface CD11b by FACS in MV4-11. The format is cell-based. To be noted: 72 h. Here is the method:
(§5) The distribution of cells among G0/G1 phase, G2/M phase, S phase and subG1 phase was determined. […] The relative fraction of cells that were live, in early apoptosis, in late apoptosis, or dead was then determined.
(§6) MV4-11 cells were treated with Compound E or with Compound A or with Compound B as single agent or in combination with azacitidine at indicated doses. FIGS. 12A, 12C, and 12E show surface levels of CD11b determined by FACS at 72 h post-treatment. FIGS. 12B, 12D, and 12F show assessment of apoptosis by FACS (as in, e.g., FIG. 9C) at 96 h post-treatment.
(§7) FIG. 17. […] (A) Indicated AML cell lines were exposed to increasing concentrations of Compound J to confirm their sensitivity to HDAC1/2 inhibition. (B-D) MV4-11 cells were treated with indicated concentrations of compounds. (B) Surface levels of myeloid differentiation marker CD11b were determined by FACS at 72 h post-treatment. […] (C) Cell cycle was assessed by flow cytometry after incorporation of EdU and staining with Far Red at 72 h post-treatment. The distribution of cells among G0/G1 phase, G2/M phase, S phase and subG1 phase was determined. […] (D) Apoptosis was assessed by flow cytometry via measuring Annexin V binding and cellular permeability to propidium iodide at 96 h post-treatment. The relative fraction of cells that were live, in early apoptosis, in late apoptosis or dead was then determined.

Assay [6] relates to HL-60, Kasumi-1 and NB4. The assay is described as follows: Apoptosis by Annexin V / propidium iodide flow cytometry in three AML cell lines. Type of assay: cell-based. To be noted: single agent; 96 hours; HL-60, Kasumi-1, NB4. The procedure: as §1, §2
In assay [7] the test system is HL-60. Briefly: Apoptosis by Annexin V / propidium iodide flow cytometry in HL-60. Type of assay: cell-based. As to conditions: 96 hours; for apoptotic cells: combination with azacitidine vs single agent. The procedure: as §1, §3
Assay [8] concerns Kasumi-1. The assay is described as follows: Apoptosis by Annexin V / propidium iodide flow cytometry in Kasumi-1. The format is cell-based. To be noted: 96 hours; for apoptotic cells: combination with azacitidine vs single agent. Here is the method:
as §1, §4

In a further assay the test system is NB4. The assay is described as follows: Apoptosis by Annexin V / propidium iodide flow cytometry in NB4. The format is cell-based. As to conditions: 96 hours; for apoptotic cells: combination with azacitidine vs single agent. Here is the method: as §1
FIGS. 7A-F show the combination of HDAC inhibitors and azacitidine in the NB4 cell line. Briefly, cells were treated with DMSO, Compound B, Compound A, or Compound E as single agent or in combination with azacitidine at the indicated concentrations. Surface levels of CD11b were determined 72 hours post-treatment (FIGS. 7A, 7C, 7E), and apoptosis was assessed 96 hours post-treatment (FIGS. 7B, 7D, 7F).

Assay [9] concerns MV4-11. The assay is described as follows: Apoptosis by Annexin V / propidium iodide flow cytometry in MV4-11. Type of assay: cell-based. As to conditions: 96 h; for induction of apoptosis: combination with azacitidine; for apoptosis relative to control cells: single agent. The procedure:
as §5, §6, §7

Entries after “also recorded” stand apart in the source; their conditions may differ.

As to `Nc1ccc(-c2cccs2)cc1NC(=O)c1ccc2c(c1)cc(C1CC1)n2CCN1CCOCC1` [Compound E, N-(2-amino-5-(thiophen-2-yl)phenyl)-2-cyclopropyl-1-(2-morpholinoethyl)-1H-indole-5-carboxamide], the Selectivity result in [1] was “selective for HDAC1/2”. The “percentage of CD11b positive cells” value in the assay on HL-60, Kasumi-1 and NB4 [2] is on record as “increased the percentage of CD11b positive cells”; in the assay on MV4-11 [5] (combination with azacitidine), “further increase of percentage of CD11b positive cells”; in the assay on MV4-11 [5] (single agent) it was “increased the percentage of CD11b positive cells”. In addition, the CD11b positive cells result in the assay on HL-60 [3] and in the assay with Kasumi-1 [4] was “synergistic increases of CD11b positive cells” in each case. For the same compound, the “apoptosis relative to control cells” value is “increased apoptosis relative to control cells” in the assay with HL-60, Kasumi-1 and NB4 [6]; “increase in apoptosis relative to control cells” in the assay with MV4-11 [9]. Also, the apoptotic cells result is recorded as “synergistic increases” with HL-60 [7], “synergistic increases” in the assay on Kasumi-1 [8] and “synergistic increases of apoptotic cells” in the assay with NB4. The values for the apoptosis result in the assay on HL-60 [7] (single agent), with Kasumi-1 [8] (single agent) and in the assay with NB4 (single agent) were “induced apoptosis”, “induced apoptosis” and “minimal effects”, respectively. In addition, the induction of apoptosis result in the assay with MV4-11 [9] is “enhanced induction of apoptosis greater than either single agent”.
Regarding `O=C(CCCCCCNC(=O)c1cnc(N(c2ccccc2)c2ccccc2)nc1)NO` [Compound A, 2-(diphenylamino)-N-(7-(hydroxyamino)-7-oxoheptyl)pyrimidine-5-carboxamide], the Selectivity result in assay [1] is “HDAC6 (1/2/3)”. In addition, the “percentage of CD11b positive cells” value in the assay on HL-60, Kasumi-1 and NB4 [2] is “increased the percentage of CD11b positive cells”; with MV4-11 [5] (combination with azacitidine) it was “further increase of percentage of CD11b positive cells”; in the assay on MV4-11 [5] (single agent), “increased the percentage of CD11b positive cells”. Moreover, the CD11b positive cells entry in the assay on HL-60 [3] and with Kasumi-1 [4] was “synergistic increases of CD11b positive cells” throughout. Also, the “apoptosis relative to control cells” value in the assay with HL-60, Kasumi-1 and NB4 [6] is “increase in apoptosis relative to control cells; also recorded: increased apoptosis relative to control cells”; in the assay with MV4-11 [9], “increase in apoptosis relative to control cells”. Moreover, the apoptotic cells entry with HL-60 [7] is given as “synergistic increases”; with Kasumi-1 [8], “synergistic increases”; in the assay on NB4, “synergistic increases of apoptotic cells”. In the assay with MV4-11 [9], the induction of apoptosis entry is “enhanced induction of apoptosis greater than either single agent”.
Consider `O=C(CCCCCCNC(=O)c1cnc(N(c2ccccc2)c2ccccc2Cl)nc1)NO` [Compound B, 2-((2-chlorophenyl)(phenyl)amino)-N-(7-(hydroxyamino)-7-oxoheptyl)pyrimidine-5-carboxamide], for which, in assay [1], the Selectivity entry is listed as “HDAC6 (1/2/3)”. The “percentage of CD11b positive cells” value in the assay on HL-60, Kasumi-1 and NB4 [2] is on record as “increased the percentage of CD11b positive cells”; in the assay with MV4-11 [5] (combination with azacitidine) it was “further increase of percentage of CD11b positive cells”. Moreover, the CD11b positive cells result in the assay on HL-60 [3] and in the assay with Kasumi-1 [4] was “synergistic increases of CD11b positive cells” each time. For the same compound, the “apoptosis relative to control cells” value with HL-60, Kasumi-1 and NB4 [6] is “increase in apoptosis relative to control cells”. Moreover, the figures for the apoptotic cells entry in the assay with HL-60 [7], in the assay on Kasumi-1 [8] and in the assay on NB4 were “synergistic increases”, “synergistic increases” and “synergistic increases of apoptotic cells”, respectively. Also, the induction of apoptosis result with MV4-11 [9] is “enhanced induction of apoptosis greater than either single agent”.
